From doi:10.1101/2025.04.10.648262, “Time-resolved phenotyping at subcellular resolution reveals shared principles and key trade-offs across antimicrobial peptide activities” (bioRxiv, 2026)
Square brackets hold non-standard residues; d marks the D form. Peptide text beside a SMILES is read from it. * marks the point of attachment. 5TAMRA = CN(C)c1ccc2c(c1)Oc1cc(N(C)C)ccc1C21OC(=O)c2cc(C(=O)*)ccc21

The molecules below were run on E. coli (MG1655). Settings: MG1655, 20 h.
Type: cell-based, Escherichia coli
Experimental: For all experiments and E. coli strains, cells were grown in a medium (M9gluCAAT) with M9 salts (33.7 mM Na2HPO4, 22mM KH2PO4, 8.55 mM NaCl, 9.35 mM NH4Cl), 0.2% (w/v) glucose, 0.4% (w/v) casamino acids, 1 mM MgSO4, 0.3 mM CaCl2, 1 μg/mL thiamine, and trace elements (13.4 mM ethylene-diamine-tetra-acetic-acid (EDTA), 3.1 mM FeCl3-6H2O, 0.62 mM ZnCl2, 76 μM CuCl2-2H2O, 42 μM CoCl2-2H2O, 162 μM H3BO3, 8.1 μM MnCl2-4H2O). Prior to every experiment, cells were first inoculated into M9gluCAAT and grown to stationary phase at 37°C. For all assays except the biofilm experiments, the culture was diluted to 1/10,000 or more in fresh medium and grown at 37°C until it reached an optical density at 600 nm (OD) of 0.2–0.4. For the biofilm experiments, cells were grown in M9gluCAAT supplemented with 100 μg/mL ampicillin to maintain the GFP-expressing plasmid. The overnight stationary-phase cultures were then diluted into the same medium to an OD of 0.015. See below for details on biofilm growth.
Except for the biofilm experiments, the strains used in this study were derived from MG1655 (ATCC 47076), which was used to estimate the minimum inhibitory concentration (MIC) for all the studied peptides (or peptoids) using a microplate reader (Figure 1A). To detect the timing of outer and inner membrane permeabilization to proteins, strain CJW7845 was constructed to carry two freely diffusing fluorescent proteins: mScarlet-I in the periplasm and mTagBFP2 in the cytoplasm. Construction of CJW7845 was done by transforming pBAD-mTagBFP2 plasmid (Addgene #34632, a gift from Vladislav Verkhusha; ([Subach et al., 2011])) into an E. coli strain expressing a periplasmic mScarlet-I reporter ([Cañas-Duarte 2021]), as previously described ([Chung et al., 1989]). Transformants were restreaked on fresh selection plates and confirmed via microscopy.
To determine the minimal inhibitory concentration (MIC) of the selected AMPs against either MG1655 or ATCC 25922 E. coli strains, exponentially growing cells were diluted in fresh medium to an OD = 10^−6 (~500 cells/mL) and mixed 50:50 with titrated AMP concentrations (which were chosen to be over a range that included the MIC) in a 96-well plate (flat bottom with low evaporation lid, 3595, Corning, Arizona, USA). A final OD of 5 × 10^−7 corresponds to ~250 cells/mL. OD curves were sampled every 5 min for a total of 48 h using a microplate reader (BioTek Synergy 2, Agilent Technologies Inc., California, USA). Raw data were exported as a text file and analysed using a custom-written Python script (microplate_reader_analysis.py). To measure maximum growth rates, the log(OD) was fitted using a linear regression over a 12-point moving window (60 min), which provides the instantaneous growth rate (log(OD)/h), from which the global maximum was computed. The MIC was defined as the minimum AMP concentration for which the maximum growth rate was < 0.2 log(OD)/h within the first 20 h of incubation. Each MIC experiment was performed independently at least three times (with at least two technical replicates each), and the mode across all replicates was taken as the final MIC; in the rare cases of a tie, an additional replicate was performed, which was sufficient to resolve it.

| SMILES | MIC (mode MIC) of 5-TAMRA-labeled AMP derivatives |
| --- | --- |
| CC[C@H](C)[C@H](NC(=O)[C@H](CCCNC(=N)N)NC(=O)[C@H](CCCNC(=N)N)NC(=O)c1ccc2c(c1)C(=O)OC21c2ccc(N(C)C)cc2Oc2cc(N(C)C)ccc21)C(=O)N[C@@H](CCCNC(=N)N)C(=O)N1CCC[C@H]1C(=O)N[C@@H](CCCNC(=N)N)C(=O)N1CCC[C@H]1C(=O)N1CCC[C@H]1C(=O)N[C@@H](CCCNC(=N)N)C(=O)N[C@@H](CC(C)C)C(=O)N1CCC[C@H]1C(=O)N[C@@H](CCCNC(=N)N)C(=O)N1CCC[C@H]1C(=O)N[C@@H](CCCNC(=N)N)C(=O)N1CCC[C@H]1C(=O)N[C@@H](CCCNC(=N)N)C(=O)N1CCC[C@H]1C(=O)N[C@@H](CC(C)C)C(=O)N1CCC[C@H]1C(=O)N[C@@H](Cc1ccccc1)C(=O)N1CCC[C@H]1C(=O)N[C@@H](CCCNC(=N)N)C(=O)N1CCC[C@H]1C(=O)NCC(=O)N1CCC[C@H]1C(=O)N[C@@H](CCCNC(=N)N)C(=O)N1CCC[C@H]1C(=O)N[C@H](C(=O)N1CCC[C@H]1C(=O)N[C@@H](CCCNC(=N)N)C(=O)N1CCC[C@H]1C(=O)N[C@@H](CC(C)C)C(=O)N1CCC[C@H]1C(=O)N[C@@H](Cc1ccccc1)C(=O)N1CCC[C@H]1C(=O)O)[C@@H](C)CC [5-TAMRA-Bac7] (5TAMRA-RRIRPRPPRLPRPRPRPLPFPRPGPRPIPRPLPFP-OH; C-terminus assumed) | 0.6 µM |
| CC[C@H](C)[C@H](NC(=O)CNC(=O)[C@H](CC(=O)O)NC(=O)[C@H](CCCNC(=N)N)NC(=O)[C@@H](NC(=O)[C@H](CC(N)=O)NC(=O)[C@H](CCC(N)=O)NC(=O)CNC(=O)[C@@H](NC(=O)[C@H](CCCCN)NC(=O)[C@H](CCC(=O)O)NC(=O)[C@@H](NC(=O)[C@H](CCCCN)NC(=O)[C@H](CCCCN)NC(=O)[C@H](Cc1ccccc1)NC(=O)[C@H](CC(C)C)NC(=O)[C@H](CCCCN)NC(=O)[C@H](Cc1c[nH]c2ccccc12)NC(=O)[C@H](CCCCN)NC(=O)c1ccc2c(c1)C(=O)OC21c2ccc(N(C)C)cc2Oc2cc(N(C)C)ccc21)[C@@H](C)CC)C(C)C)[C@@H](C)CC)C(=O)N[C@H](C(=O)N[C@@H](CCCCN)C(=O)N[C@@H](C)C(=O)NCC(=O)N1CCC[C@H]1C(=O)N[C@@H](C)C(=O)N[C@H](C(=O)N[C@@H](C)C(=O)N[C@H](C(=O)N[C@H](C(=O)NCC(=O)N[C@@H](CCC(N)=O)C(=O)N[C@@H](C)C(=O)N[C@H](C(=O)N[C@@H](CCC(N)=O)C(=O)N[C@H](C(=O)N[C@@H](C)C(=O)N[C@@H](CCCCN)C(N)=O)[C@@H](C)CC)[C@@H](C)O)C(C)C)C(C)C)C(C)C)[C@@H](C)CC [5-TAMRA-CecA] (5TAMRA-KWKLFKKIEKVGQNIRDGIIKAGPAVAVVGQATQIAK-NH2; C-terminus assumed) | 2 µM |
| CC[C@@H](C)[C@@H](NC(=O)[C@@H](C)NC(=O)[C@@H](CCCNC(=N)N)NC(=O)[C@@H](Cc1c[nH]c2ccccc12)NC(=O)[C@@H](CCC(N)=O)NC(=O)[C@H](NC(=O)c1ccc2c(c1)C(=O)OC21c2ccc(N(C)C)cc2Oc2cc(N(C)C)ccc21)C(C)C)C(=O)N[C@H](CCCNC(=N)N)C(=O)N[C@@H](C(=O)N[C@H](CCCNC(=N)N)C(=O)N[C@@H](C(=O)N[C@@H](C(=O)N[C@H](CCCNC(=N)N)C(N)=O)[C@H](C)CC)C(C)C)C(C)C [5-TAMRA-DJK-5] (5TAMRA-[dV][dQ][dW][dR][dA][dI][dR][dV][dR][dV][dI][dR]-NH2; C-terminus assumed) | 2.5 µM |
